Measurements from patent publication US20250243196A1, “CITRON KINASE INHIBITORS” (The Cleveland Clinic Foundation, priority 2021, published 2025).

Experiments:
Test in all cases: KinaseProfiler panel
Format in all cases: biochemical
Settings in all cases: activity remaining
PKG1α(h) = PKG1α(h) (Homo sapiens (Human), UniProt Q13976); set-up: dose or concentration left out as unconfirmed
CaMKIIδ(h) = CaMKIIδ(h) (Homo sapiens (Human), UniProt Q13557); set-up: dose or concentration left out as unconfirmed
TNIK(h) = TNIK(h) (Homo sapiens (Human), UniProt Q9UKE5)
CaMKIδ(h) = CaMKIδ(h) (Homo sapiens (Human), UniProt Q8IU85); set-up: dose or concentration left out as unconfirmed
DAPK2(h) = DAPK2(h) (Homo sapiens (Human), UniProt Q9UIK4)
MRCKα(h) = MRCKα(h) (Homo sapiens (Human), UniProt Q5VT25); set-up: dose or concentration left out as unconfirmed
PKCμ(h) = PKCμ(h) (Homo sapiens (Human), UniProt Q15139); set-up: dose or concentration left out as unconfirmed
JAK3(h) = JAK3(h) (Homo sapiens (Human), UniProt P52333); set-up: dose or concentration left out as unconfirmed
IRAK1(h) = IRAK1(h) (Homo sapiens (Human), UniProt P51617); set-up: dose or concentration left out as unconfirmed
ALK4(h) = ALK4(h) (Homo sapiens (Human), UniProt P36896); set-up: dose or concentration left out as unconfirmed
JAK1(h) = JAK1(h) (Homo sapiens (Human), UniProt P23458); set-up: dose or concentration left out as unconfirmed
CDK1/cyclinB(h) = CDK1/cyclinB(h) (Homo sapiens (Human), UniProt P06493); set-up: dose or concentration left out as unconfirmed
PAK2(h) = PAK2(h) (Homo sapiens (Human), UniProt Q13177); set-up: dose or concentration left out as unconfirmed
SRPK1(h) = SRPK1(h) (Homo sapiens (Human), UniProt Q96SB4); set-up: dose or concentration left out as unconfirmed
CDK16/cyclinY(h) = CDK16/cyclinY(h) (Homo sapiens (Human), UniProt Q00536); set-up: dose or concentration left out as unconfirmed
BrSK2(h) = BrSK2(h) (Homo sapiens (Human), UniProt Q8IWQ3); set-up: dose or concentration left out as unconfirmed
NEK11(h) = NEK11(h) (Homo sapiens (Human), UniProt Q8NG66); set-up: dose or concentration left out as unconfirmed
Txk(h) = Txk(h) (Homo sapiens (Human), UniProt P42681); set-up: dose or concentration left out as unconfirmed
Bmx(h) = Bmx(h) (Homo sapiens (Human), UniProt P51813); set-up: dose or concentration left out as unconfirmed
[1] = biological target: PI3 Kinase (p110d/p85a)(h) (Homo sapiens (Human), UniProt O00329); set-up: dose or concentration left out as unconfirmed
CSK(h) = CSK(h) (Homo sapiens (Human), UniProt P41240); set-up: dose or concentration left out as unconfirmed
WNK2(h) = WNK2(h) (Homo sapiens (Human), UniProt Q9Y3S1); set-up: dose or concentration left out as unconfirmed
SIK3(h) = SIK3(h) (Homo sapiens (Human), UniProt Q9Y2K2); set-up: dose or concentration left out as unconfirmed
CDK2/cyclinE(h) = CDK2/cyclinE(h) (Homo sapiens (Human), UniProt P24941); set-up: dose or concentration left out as unconfirmed
CHK1(h) = CHK1(h) (Homo sapiens (Human), UniProt O14757); set-up: dose or concentration left out as unconfirmed
CK1γ1(h) = CK1γ1(h) (Homo sapiens (Human), UniProt Q9HCP0); set-up: dose or concentration left out as unconfirmed
EphA7(h) = EphA7(h) (Homo sapiens (Human), UniProt Q15375); set-up: dose or concentration left out as unconfirmed

Chain of TNIK(h) (Q9UKE5 whole entry): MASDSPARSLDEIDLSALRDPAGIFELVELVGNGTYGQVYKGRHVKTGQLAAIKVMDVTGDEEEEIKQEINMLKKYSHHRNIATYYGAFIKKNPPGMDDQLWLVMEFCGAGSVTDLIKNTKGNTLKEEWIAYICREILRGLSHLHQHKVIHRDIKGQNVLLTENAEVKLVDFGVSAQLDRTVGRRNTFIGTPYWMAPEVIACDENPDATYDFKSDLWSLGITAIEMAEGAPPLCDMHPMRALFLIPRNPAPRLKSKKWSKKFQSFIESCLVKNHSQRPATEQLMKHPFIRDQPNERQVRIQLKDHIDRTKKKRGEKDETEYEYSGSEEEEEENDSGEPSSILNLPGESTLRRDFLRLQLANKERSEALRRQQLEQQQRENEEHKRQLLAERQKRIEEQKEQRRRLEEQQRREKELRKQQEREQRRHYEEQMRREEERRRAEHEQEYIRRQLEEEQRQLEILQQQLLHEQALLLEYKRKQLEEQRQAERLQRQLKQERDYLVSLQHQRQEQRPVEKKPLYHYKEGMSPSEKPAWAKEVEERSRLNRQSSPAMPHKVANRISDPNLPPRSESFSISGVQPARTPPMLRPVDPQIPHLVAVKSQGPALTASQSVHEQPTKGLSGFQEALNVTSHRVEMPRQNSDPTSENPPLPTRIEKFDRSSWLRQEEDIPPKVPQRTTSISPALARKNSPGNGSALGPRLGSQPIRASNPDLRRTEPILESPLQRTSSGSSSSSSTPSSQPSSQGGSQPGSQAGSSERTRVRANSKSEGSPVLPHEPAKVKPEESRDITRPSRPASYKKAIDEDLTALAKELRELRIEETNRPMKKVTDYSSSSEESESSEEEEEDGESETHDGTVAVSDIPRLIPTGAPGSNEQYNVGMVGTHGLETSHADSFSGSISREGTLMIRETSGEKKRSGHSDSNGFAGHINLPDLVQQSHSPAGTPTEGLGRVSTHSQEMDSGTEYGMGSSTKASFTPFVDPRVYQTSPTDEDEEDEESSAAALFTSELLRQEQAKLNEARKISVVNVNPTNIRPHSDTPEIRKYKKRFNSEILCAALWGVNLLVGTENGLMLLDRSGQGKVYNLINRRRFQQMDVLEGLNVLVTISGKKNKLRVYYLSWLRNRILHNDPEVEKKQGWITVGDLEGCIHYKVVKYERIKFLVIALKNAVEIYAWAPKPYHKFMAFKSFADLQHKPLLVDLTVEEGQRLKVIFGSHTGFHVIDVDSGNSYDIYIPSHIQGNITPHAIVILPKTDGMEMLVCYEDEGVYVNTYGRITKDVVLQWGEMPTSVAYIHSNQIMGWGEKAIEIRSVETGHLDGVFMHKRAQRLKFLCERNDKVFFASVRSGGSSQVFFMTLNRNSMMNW
Chain of JAK1(h) (P23458 whole entry): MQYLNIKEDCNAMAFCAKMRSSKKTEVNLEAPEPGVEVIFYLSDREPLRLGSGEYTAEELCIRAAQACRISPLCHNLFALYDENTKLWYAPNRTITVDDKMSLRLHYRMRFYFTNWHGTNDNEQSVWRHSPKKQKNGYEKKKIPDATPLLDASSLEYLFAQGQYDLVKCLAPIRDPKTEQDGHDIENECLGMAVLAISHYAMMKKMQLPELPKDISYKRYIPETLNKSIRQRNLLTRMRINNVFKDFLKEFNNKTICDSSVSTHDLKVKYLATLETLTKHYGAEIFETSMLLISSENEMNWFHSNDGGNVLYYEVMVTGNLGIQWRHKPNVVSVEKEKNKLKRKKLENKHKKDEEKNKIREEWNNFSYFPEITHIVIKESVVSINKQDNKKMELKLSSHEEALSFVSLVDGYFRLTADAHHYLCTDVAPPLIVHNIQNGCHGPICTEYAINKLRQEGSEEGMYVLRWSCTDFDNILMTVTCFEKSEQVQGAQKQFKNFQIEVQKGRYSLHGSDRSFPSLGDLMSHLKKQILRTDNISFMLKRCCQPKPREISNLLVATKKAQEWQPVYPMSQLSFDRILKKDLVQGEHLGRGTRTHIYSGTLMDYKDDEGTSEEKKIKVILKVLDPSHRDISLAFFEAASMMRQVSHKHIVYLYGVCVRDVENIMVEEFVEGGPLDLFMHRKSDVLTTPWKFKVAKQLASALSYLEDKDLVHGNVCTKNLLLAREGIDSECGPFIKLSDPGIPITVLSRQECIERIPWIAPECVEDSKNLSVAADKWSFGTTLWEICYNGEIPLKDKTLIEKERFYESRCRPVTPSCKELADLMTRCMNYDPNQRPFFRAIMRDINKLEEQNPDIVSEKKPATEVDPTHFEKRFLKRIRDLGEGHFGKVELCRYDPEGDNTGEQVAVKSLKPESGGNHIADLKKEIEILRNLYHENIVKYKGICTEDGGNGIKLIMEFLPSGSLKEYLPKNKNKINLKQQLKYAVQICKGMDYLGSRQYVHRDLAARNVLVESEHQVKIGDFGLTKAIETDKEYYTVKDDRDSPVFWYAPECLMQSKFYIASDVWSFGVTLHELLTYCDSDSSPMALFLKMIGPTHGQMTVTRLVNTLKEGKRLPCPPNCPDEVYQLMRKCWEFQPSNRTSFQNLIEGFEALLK
Chain of CaMKIIδ(h) (Q13557 whole entry): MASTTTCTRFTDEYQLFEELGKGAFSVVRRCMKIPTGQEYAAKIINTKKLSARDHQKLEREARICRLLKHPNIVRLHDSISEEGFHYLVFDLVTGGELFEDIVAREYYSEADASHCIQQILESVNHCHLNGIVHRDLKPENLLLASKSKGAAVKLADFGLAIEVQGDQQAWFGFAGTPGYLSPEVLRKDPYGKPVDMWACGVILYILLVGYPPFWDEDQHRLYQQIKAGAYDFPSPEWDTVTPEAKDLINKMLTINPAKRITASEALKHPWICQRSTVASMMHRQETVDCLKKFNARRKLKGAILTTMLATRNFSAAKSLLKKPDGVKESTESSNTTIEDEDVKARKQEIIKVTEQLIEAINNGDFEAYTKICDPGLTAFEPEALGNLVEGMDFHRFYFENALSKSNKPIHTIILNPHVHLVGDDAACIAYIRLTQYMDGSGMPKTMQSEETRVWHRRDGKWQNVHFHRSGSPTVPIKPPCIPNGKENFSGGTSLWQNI
Chain of SRPK1(h) (Q96SB4 whole entry): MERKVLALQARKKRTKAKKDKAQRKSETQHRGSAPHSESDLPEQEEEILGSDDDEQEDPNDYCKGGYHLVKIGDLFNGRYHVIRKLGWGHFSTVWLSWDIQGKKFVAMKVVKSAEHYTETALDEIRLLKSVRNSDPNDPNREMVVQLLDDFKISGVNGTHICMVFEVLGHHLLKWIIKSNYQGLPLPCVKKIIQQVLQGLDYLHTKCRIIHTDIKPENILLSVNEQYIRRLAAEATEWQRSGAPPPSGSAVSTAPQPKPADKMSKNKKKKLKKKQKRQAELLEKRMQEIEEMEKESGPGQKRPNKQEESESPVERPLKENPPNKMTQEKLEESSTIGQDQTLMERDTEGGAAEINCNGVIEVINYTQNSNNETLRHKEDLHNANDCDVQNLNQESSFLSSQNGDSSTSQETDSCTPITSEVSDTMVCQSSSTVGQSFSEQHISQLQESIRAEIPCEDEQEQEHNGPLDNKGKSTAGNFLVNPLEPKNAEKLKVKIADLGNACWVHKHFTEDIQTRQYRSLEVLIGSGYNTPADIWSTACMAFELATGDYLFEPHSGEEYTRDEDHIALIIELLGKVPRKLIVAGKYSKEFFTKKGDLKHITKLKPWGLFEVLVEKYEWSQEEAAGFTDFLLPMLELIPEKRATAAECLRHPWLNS
Chain of CDK16/cyclinY(h) (Q00536 whole entry): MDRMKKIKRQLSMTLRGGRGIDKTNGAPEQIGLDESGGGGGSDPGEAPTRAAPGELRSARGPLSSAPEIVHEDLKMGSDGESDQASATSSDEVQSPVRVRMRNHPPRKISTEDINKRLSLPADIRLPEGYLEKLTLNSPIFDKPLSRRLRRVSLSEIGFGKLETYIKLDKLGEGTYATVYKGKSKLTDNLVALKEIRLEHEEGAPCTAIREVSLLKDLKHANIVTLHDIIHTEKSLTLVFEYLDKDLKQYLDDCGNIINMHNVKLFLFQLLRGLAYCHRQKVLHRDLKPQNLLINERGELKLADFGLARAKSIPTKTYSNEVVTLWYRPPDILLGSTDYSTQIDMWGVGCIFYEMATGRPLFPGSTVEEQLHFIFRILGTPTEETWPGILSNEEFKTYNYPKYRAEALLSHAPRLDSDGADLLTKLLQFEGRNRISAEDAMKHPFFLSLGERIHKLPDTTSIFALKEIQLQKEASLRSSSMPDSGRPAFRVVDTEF
Chain of CDK16/cyclinY(h) (Q8ND76 whole entry partner): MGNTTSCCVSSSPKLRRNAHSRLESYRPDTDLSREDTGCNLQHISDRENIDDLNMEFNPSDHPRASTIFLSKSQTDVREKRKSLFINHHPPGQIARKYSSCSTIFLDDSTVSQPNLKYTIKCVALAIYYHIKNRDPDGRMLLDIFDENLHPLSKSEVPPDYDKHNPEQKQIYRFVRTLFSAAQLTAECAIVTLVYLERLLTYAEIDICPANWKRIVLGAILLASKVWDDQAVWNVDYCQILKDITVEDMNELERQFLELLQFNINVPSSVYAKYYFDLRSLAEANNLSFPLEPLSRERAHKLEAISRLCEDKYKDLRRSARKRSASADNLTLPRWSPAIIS
Chain of Txk(h) (P42681 whole entry): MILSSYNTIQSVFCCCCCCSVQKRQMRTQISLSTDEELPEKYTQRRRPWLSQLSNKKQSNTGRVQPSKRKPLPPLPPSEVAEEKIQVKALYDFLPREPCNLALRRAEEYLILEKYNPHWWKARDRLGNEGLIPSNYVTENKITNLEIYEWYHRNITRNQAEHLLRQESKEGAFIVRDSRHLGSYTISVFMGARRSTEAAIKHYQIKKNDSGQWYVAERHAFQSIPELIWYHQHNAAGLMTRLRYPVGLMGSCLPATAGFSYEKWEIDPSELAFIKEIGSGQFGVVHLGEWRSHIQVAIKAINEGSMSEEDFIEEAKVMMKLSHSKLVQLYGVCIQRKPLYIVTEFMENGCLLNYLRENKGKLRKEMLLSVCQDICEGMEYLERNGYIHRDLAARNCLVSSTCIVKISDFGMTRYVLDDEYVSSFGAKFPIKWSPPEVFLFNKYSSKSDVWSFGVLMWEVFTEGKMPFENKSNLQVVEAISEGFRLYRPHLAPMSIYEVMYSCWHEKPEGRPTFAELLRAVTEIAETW

In the case of `Cc1cc2c(-c3ccc(NC(=O)[C@H](N)CC(C)(C)C)cc3C)ccnc2[nH]1` [Compound F-90, (2R)-2-Amino-4,4-dimethyl-N-[3-methyl-4-(2-methyl-1H-pyrrolo[2,3-b]pyridin-4-yl)phenyl]pentanamide], the “% Activity” value (PKG1α(h)) is reported as 118%, the “% Activity” value (CaMKIIδ(h)) is reported as 96% and the “% Activity” value (TNIK(h)) is reported as 93%. The “% Activity” value (CaMKIδ(h)) was 89%, the “% Activity” value (DAPK2(h)) was 109% and the “% Activity” value (MRCKα(h)) was 94%. The “% Activity” value (PKCμ(h)) was 109%, the “% Activity” value (JAK3(h)) was 106% and the “% Activity” value (IRAK1(h)) was 95%. The “% Activity” value (ALK4(h)) was 94%, the “% Activity” value (JAK1(h)) was 85% and the “% Activity” value (CDK1/cyclinB(h)) was 94%. The “% Activity” value (PAK2(h)) was 95%, the “% Activity” value (SRPK1(h)) was 95% and the “% Activity” value (CDK16/cyclinY(h)) was 98%. The “% Activity” value (BrSK2(h)) was 83%, the “% Activity” value (NEK11(h)) was 97% and the “% Activity” value (Txk(h)) was 110%. The “% Activity” value (Bmx(h)) was 97%, the “% Activity” value [1] was 110% and the “% Activity” value (CSK(h)) was 92%. For the same compound, the “% Activity” value (WNK2(h)) was 94%, the “% Activity” value (SIK3(h)) was 105% and the “% Activity” value (CDK2/cyclinE(h)) was 92%. For the same compound, the “% Activity” value (CHK1(h)) was 108%, the “% Activity” value (CK1γ1(h)) was 101% and the “% Activity” value (EphA7(h)) was 114%.
